According to US7078438B2, “N-(4 substituted phenyl)-anthranilic acid hydroxamate esters” (Warner-Lambert Company, priority 2002, dated 2006):

Columns and labels:
MEK = assay: Cellular assay for measuring MEK inhibition (inhibition of ERK phosphorylation); type: cell-based; conditions: inhibition of phosphorylation of MAP kinase (ERK) in murine colon 26 (C26) carcinoma cells; 1 hour at 37° C.; Western blotting
Description: Cellular Assay for Measuring MEK Inhibition
The evaluation of the compounds as MEK inhibitors is performed in an assay that measures their ability to inhibit phosphorylation of MAP kinase (ERK) in murine colon 26 (C26) carcinoma cells. Since ERK1 and ERK2 represent the only known substrates for MEK, measurement of inhibition of ERK phosphorylation in cells provides direct readout of cellular MEK inhibition by the compounds of the invention. Briefly, the assay involves treating exponentially growing C26 cells with varying concentrations of the test compound (or vehicle control) for 1 hour at 37° C. Cells are then rinsed free of compound/vehicle and lysed in a solution containing 70 mM NaCl, 50 mM glycerol phosphate, 10 mM HEPES, pH 7.4, 1% Triton X-100, 1 mM Na3VO4, 100 μM PMSF, 10 μM leupeptin, and 10 μM pepstatin. Supernatants are then subjected to gel electrophoresis and Western blotting using a primary antibody recognizing dually phosphorylated ERK1 and ERK2. To evaluate total MAPK levels, blots were subsequently ‘stripped’ and re-probed with a 1:1 mixture of polyclonal antibodies recognizing unphosphorylated ERK1 and ERK2.
The inhibition data generated by the above protocol is disclosed in Table 1. If several concentrations of inhibitor were tested, IC50 values (the concentration which gives 50% inhibition) were determined graphically from the dose response curve for % inhibition. Otherwise, percent inhibitions at measured concentrations are reported.

SMILES	IC50 (MEK)	melting point
CCc1ccc(Nc2c(C(=O)NOCCO)ccc(F)c2F)c(F)c1 [Example 1, 2-[(4-Ethyl-2-fluorophenyl)amino]-3,4-difluoro-N-(2-hydroxyethoxy)benzamide]	0.0028 µM	–
CCc1ccc(Nc2c(C(=O)NOCCO)ccc(F)c2F)c(Cl)c1 [Example 2, 2-(2-Chloro-4-ethyl-phenylamino)-3,4-difluoro-N-(2-hydroxy-ethoxy)-benzamide]	0.0086 µM	142.5 to 145 °C
Cc1ccc(Nc2c(C(=O)NOCCO)ccc(F)c2F)c(F)c1 [Example 3, 3,4-Difluoro-2-(2-fluoro-4-methylanilino)-N-(2-hydroxyethoxy)benzamide]	0.00015 µM	134 to 139 °C
C=Cc1ccc(Nc2c(C(=O)NOCCO)ccc(F)c2F)c(F)c1 [Example 4, 3,4-Difluoro-2-[(2-fluoro-4-vinylphenyl)amino]-N-(2-hydroxyethoxy)benzamide]	0.0026 µM	134 to 138 °C
C=CCc1ccc(Nc2c(C(=O)NOCCO)ccc(F)c2F)c(F)c1 [Example 6, 2-(4-Allyl-2-fluoroanilino)-3,4-difluoro-N-(2-hydroxyethoxy)benzamide]	0.0078 µM	173 to 177 °C
C#Cc1ccc(Nc2c(C(=O)NOCCO)ccc(F)c2F)c(F)c1 [Example 7]	0.00015 µM	158 to 161 °C
C#Cc1ccc(Nc2c(C(=O)NOCCO)ccc(F)c2F)c(Cl)c1 [Example 8, 2-(2-Chloro-4-ethynyl-phenylamino)-3,4-difluoro-N-(2-hydroxy-ethoxy)-benzamide]	0.004 µM	155 to 157 °C
NCC#Cc1ccc(Nc2c(C(=O)NOCCO)ccc(F)c2F)c(F)c1 [Example 9, 2-[4-(3-Amino-1-propynyl)-2-fluoroanilino]-3,4-difluoro-N-(2-hydroxyethoxy)benzamide]	0.467 µM	72 to 76 °C
O=C(NOCCO)c1ccc(F)c(F)c1Nc1ccc(C#CCO)cc1F [Example 10, 3,4-Difluoro-2-[2-fluoro-4-(3-hydroxy-1-propynyl)anilino]-N-(2-hydroxyethoxy)benzamide]	0.13 µM	169 to 172 °C
O=C(NOCCO)c1ccc(F)c(F)c1Nc1ccc(C#CCCO)cc1F [Example 11, 3,4-Difluoro-2-[2-fluoro-4-(4-hydroxy-1-butynyl)anilino]-N-(2-hydroxyethoxy)benzamide]	0.7 µM	126 to 129 °C
CC(C)(O)C#Cc1ccc(Nc2c(C(=O)NOCCO)ccc(F)c2F)c(F)c1 [Example 12, 3,4-Difluoro-2-[2-fluoro-4-(3-hydroxy-3-methyl-1-butynyl)anilino]-N-(2-hydroxyethoxy)benzamide]	> 3 µM	139 to 142 °C
CCC(C)(O)C#Cc1ccc(Nc2c(C(=O)NOCCO)ccc(F)c2F)c(F)c1 (stereo not shown) [Example 13, 3,4-Difluoro-2-[2-fluoro-4-(3-hydroxy-3-methyl-1-pentynyl)anilino]-N-(2-hydroxyethoxy)benzamide]	> 1 µM	127 to 131 °C
NCCCc1ccc(Nc2c(C(=O)NOCCO)ccc(F)c2F)c(F)c1 [Example 14, 2-[4-(3-Aminopropyl)-2-fluoroanilino]-3,4-difluoro-N-(2-hydroxyethoxy)benzamide]	> 1 µM	178 to 181 °C
CN(C)CCCc1ccc(Nc2c(C(=O)NOCCO)ccc(F)c2F)c(F)c1 [Example 15, 2-{4-[3-(Dimethylamino)propyl]-2-fluoroanilino}-3,4-difluoro-N-(2-hydroxyethoxy)benzamide]	> 1 µM	–
CNCCCc1ccc(Nc2c(C(=O)NOCCO)ccc(F)c2F)c(F)c1 [Example 16, 3,4-Difluoro-2-{2-fluoro-4-[3-(methylamino)propyl]anilino}-N-(2-hydroxyethoxy)benzamide]	> 1 µM	112 to 116 °C
O=C(NOCCO)c1ccc(F)c(F)c1Nc1ccc(CO)cc1 [Example 17, 3,4-Difluoro-N-(2-hydroxyethoxy)-2-[[4-(hydroxymethyl)phenyl]amino]benzamide]	> 1 µM	73 to 77 °C
O=C(NOCCO)c1ccc(F)c(F)c1Nc1ccc(CO)cc1F [Example 18, 3,4-Difluoro-2-[2-fluoro-4-(hydroxymethyl)anilino]-N-(2-hydroxyethoxy)benzamide]	–	108 to 110 °C
O=C(NOCCO)c1ccc(F)c(F)c1Nc1ccc(CCCO)cc1F [Example 20, 3,4-Difluoro-2-[2-fluoro-4-(3-hydroxypropyl)anilino]-N-(2-hydroxyethoxy)benzamide]	–	115 to 116 °C
O=C(NOCCO)c1ccc(F)c(F)c1Nc1ccc(CCCCO)cc1F [Example 21, 3,4-Difluoro-2-[2-fluoro-4-(4-hydroxybutyl)anilino]-N-(2-hydroxyethoxy)benzamide]	0.8 µM	65 to 69 °C
O=C(NOCCO)c1ccc(F)c(F)c1Nc1ccc(CC(O)CO)cc1F (stereo not shown) [Example 22, 2-[4-(2,3-Dihydroxypropyl)-2-fluoroanilino]-3,4-difluoro-N-(2-hydroxyethoxy)benzamide]	–	118 to 120 °C
CC(C)(O)CCc1ccc(Nc2c(C(=O)NOCCO)ccc(F)c2F)c(F)c1 [Example 23, 3,4-Difluoro-2-[2-fluoro-4-(3-hydroxy-3-methylbutyl)anilino]-N-(2-hydroxyethoxy)benzamide]	0.2 µM	–
CCC(C)(O)CCc1ccc(Nc2c(C(=O)NOCCO)ccc(F)c2F)c(F)c1 (stereo not shown) [Example 24, 3,4-Difluoro-2-[2-fluoro-4-(3-hydroxy-3-methylpentyl)anilino]-N-(2-hydroxyethoxy)benzamide]	0.59 µM	–
COCCCc1ccc(Nc2c(C(=O)NOCCO)ccc(F)c2F)c(F)c1 [Example 25, 3,4-Difluoro-2-[[2-fluoro-4-(3-methoxypropyl)phenyl]amino]-N-(2-hydroxyethoxy)benzamide]	0.022 µM	–
CSc1ccc(Nc2c(C(=O)NOCCO)ccc(F)c2F)c(F)c1 [Example 26, 3,4-Difluoro-2-[[2-fluoro-4-(methylthio)phenyl]amino]-N-(2-hydroxyethoxy)benzamide]	0.00085 µM	108 to 111 °C
CCSc1ccc(Nc2c(C(=O)NOCCO)ccc(F)c2F)c(F)c1 [Example 27, 3,4-Difluoro-2-[[2-fluoro-4-(ethylthio)phenyl]amino]-N-(2-hydroxyethoxy)benzamide]	0.0022 µM	129 to 132 °C
CS(=O)(=O)c1ccc(Nc2c(C(=O)NOCCO)ccc(F)c2F)c(F)c1 [Example 28, 3,4-Difluoro-2-[[2-fluoro-4-(methylsulfonyl)phenyl]amino]-N-(2-hydroxyethoxy)benzamide]	0.72 µM	85 to 88 °C
CCCc1ccc(Nc2c(C(=O)NOCCO)ccc(F)c2F)c(F)c1 [Example 29, 3,4-Difluoro-2-(2-fluoro-4-propylanilino)-N-(2-hydroxyethoxy)benzamide]	0.0041 µM	144 to 146 °C
CCCCc1ccc(Nc2c(C(=O)NOCCO)ccc(F)c2F)c(F)c1 [Example 30, 2-(4-Butyl-2-fluoroanilino)-3,4-difluoro-N-(2-hydroxyethoxy)benzamide]	0.19 µM	–
CCc1ccc(Nc2c(C(=O)NOC[C@@H](O)CO)ccc(F)c2F)c(F)c1 [Example 32, N-[(S+)2,3-Dihydroxy-propoxy]-2-(4-ethyl-2-fluoro-phenylamino)-3,4-difluoro-benzamide]	0.002 µM	–
CCc1ccc(Nc2c(C(=O)NOC(CO)CO)ccc(F)c2F)c(F)c1 [Example 33, 2-(4-Ethyl-2-fluoro-phenylamino)-3,4-difluoro-N-(2-hydroxy-1-hydroxymethyl-ethoxy)-benzamide]	–	91 to 93 °C
